Laboratory results as given in ChEMBL document CHEMBL5046296 (J Med Chem, 2022).
Converted amounts (≈) assume the structure as drawn.

Legend:
[1] = Solubility of the compound in PEG400; format: physicochemical
[2] = Ratio of drug concentration in spinal cord to plasma in CCI induced thermal hyperalgesia Sprague-Dawley rat model at 0.3 mg/kg, po measured at 5.75 hrs post dose; format: ADME, organism-based
[3] = Ratio of drug concentration in spinal cord to plasma in CCI induced thermal hyperalgesia Sprague-Dawley rat model at 0.1 mg/kg, po measured at 5.75 hrs post dose; format: ADME, organism-based
[4] = Tmax in rat at 3 mg/kg, po; format: ADME, organism-based; conditions: in vivo
[5] = Tmax in mouse at 3 mg/kg, po; format: ADME, organism-based; conditions: in vivo
[6] = Tmax in monkey at 3 mg/kg, po; format: ADME, organism-based, Macaca mulatta; conditions: rhesus monkey, in vivo
[7] = Permeability of compound at pH 5.5 measured after 4 hrs by PAMPA assay; format: ADME; conditions: read-out: permeability
[8] = Permeability across apical to basolateral side in human Caco-2 cells at 3 uM measured after 2 hrs by LC-MS/MS analysis; format: ADME, cell-based; conditions: read-out: permeability
[9] = Permeability across basolateral to apical side in human Caco-2 cells at 3 uM measured after 2 hrs by LC-MS/MS analysis; format: ADME, cell-based; conditions: read-out: permeability
[10] = Protein binding in mouse brain assessed as unbound fraction at 1 uM incubated for 4 hrs by LC-MS/MS analysis; format: ADME, tissue-based
[11] = Metabolic stability in dog liver microsomes assessed as half life; format: ADME, Canis lupus familiaris, Microsome
Cytochrome P450 2B6 = Cytochrome P450 2B6 (Homo sapiens, UniProt P20813); experiment: Inhibition of CYP2B6 (unknown origin); format: ADME
Chain of Cytochrome P450 2B6 (P20813 whole entry): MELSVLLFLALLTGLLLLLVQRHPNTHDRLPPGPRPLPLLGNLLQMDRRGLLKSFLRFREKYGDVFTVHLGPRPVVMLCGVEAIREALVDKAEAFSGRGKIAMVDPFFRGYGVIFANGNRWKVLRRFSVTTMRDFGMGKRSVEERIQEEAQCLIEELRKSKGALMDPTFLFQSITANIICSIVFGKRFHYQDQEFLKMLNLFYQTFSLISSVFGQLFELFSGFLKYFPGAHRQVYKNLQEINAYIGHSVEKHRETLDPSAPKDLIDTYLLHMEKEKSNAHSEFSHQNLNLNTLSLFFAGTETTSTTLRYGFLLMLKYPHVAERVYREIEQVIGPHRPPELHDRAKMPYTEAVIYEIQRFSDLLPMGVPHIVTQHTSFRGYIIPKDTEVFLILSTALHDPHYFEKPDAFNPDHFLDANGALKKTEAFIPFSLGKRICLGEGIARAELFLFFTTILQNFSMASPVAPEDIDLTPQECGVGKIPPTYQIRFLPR

Cytochrome P450 3A4 [12] = molecular target: T1, Cytochrome P450 3A4 (Homo sapiens, UniProt P08684); experiment: Time dependent inhibition of CYP3A4 (unknown origin) using BSF as substrate measured at 5 mins; format: ADME
T1 sequence (P08684 whole entry): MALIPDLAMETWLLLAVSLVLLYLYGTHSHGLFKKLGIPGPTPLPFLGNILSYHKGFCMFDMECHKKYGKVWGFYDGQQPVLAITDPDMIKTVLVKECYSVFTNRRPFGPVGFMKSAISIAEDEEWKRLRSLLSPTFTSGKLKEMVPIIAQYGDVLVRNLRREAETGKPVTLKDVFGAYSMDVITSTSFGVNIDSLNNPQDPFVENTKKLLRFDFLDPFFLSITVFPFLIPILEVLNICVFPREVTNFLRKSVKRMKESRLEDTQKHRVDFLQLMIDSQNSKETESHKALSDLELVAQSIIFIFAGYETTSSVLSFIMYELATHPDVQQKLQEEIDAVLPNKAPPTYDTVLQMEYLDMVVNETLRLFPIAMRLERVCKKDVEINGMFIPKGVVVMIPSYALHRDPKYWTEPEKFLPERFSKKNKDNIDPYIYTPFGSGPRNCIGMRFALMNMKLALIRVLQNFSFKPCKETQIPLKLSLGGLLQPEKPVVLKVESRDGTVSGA

Cytochrome P450 3A4 [13] = molecular target: T1, Cytochrome P450 3A4; experiment: Time dependent inhibition of CYP3A4 (unknown origin) using BSF as substrate measured at 30 mins; format: ADME
Cytochrome P450 3A4 [14] = molecular target: T1, Cytochrome P450 3A4; experiment: Time dependent inhibition of CYP3A4 (unknown origin) using MDZ as substrate measured at 5 mins; format: ADME
[15] = molecular target: Solute carrier organic anion transporter family member 1B3 (Homo sapiens, UniProt Q9NPD5); experiment: Inhibition of OATP1B3 (unknown origin)
Chain of Solute carrier organic anion transporter family member 1B3 (Q9NPD5 whole entry): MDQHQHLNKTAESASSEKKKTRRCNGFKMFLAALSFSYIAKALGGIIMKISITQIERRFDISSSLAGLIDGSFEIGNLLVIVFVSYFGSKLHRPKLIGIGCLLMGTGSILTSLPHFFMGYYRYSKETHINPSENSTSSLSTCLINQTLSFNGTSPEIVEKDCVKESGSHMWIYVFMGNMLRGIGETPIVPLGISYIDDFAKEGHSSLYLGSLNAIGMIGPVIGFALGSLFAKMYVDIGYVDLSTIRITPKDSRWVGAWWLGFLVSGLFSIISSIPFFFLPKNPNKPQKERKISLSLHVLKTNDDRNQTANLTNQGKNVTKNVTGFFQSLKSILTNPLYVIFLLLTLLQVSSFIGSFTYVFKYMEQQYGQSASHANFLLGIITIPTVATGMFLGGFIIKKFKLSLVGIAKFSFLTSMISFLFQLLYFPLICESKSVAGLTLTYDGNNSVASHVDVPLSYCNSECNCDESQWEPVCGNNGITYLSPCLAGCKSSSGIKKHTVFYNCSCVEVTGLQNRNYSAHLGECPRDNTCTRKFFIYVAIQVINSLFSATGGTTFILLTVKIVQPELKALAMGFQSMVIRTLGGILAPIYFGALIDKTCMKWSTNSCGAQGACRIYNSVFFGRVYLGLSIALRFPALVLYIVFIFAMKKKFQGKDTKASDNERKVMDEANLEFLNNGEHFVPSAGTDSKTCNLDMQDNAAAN

Bile salt export pump = Bile salt export pump (Homo sapiens, UniProt O95342); experiment: Inhibition of BSEP (unknown origin)
[16] = molecular target: Solute carrier family 22 member 6 (Homo sapiens, UniProt Q4U2R8); experiment: Inhibition of OAT1 (unknown origin)
Chain of Solute carrier family 22 member 6 (Q4U2R8 whole entry): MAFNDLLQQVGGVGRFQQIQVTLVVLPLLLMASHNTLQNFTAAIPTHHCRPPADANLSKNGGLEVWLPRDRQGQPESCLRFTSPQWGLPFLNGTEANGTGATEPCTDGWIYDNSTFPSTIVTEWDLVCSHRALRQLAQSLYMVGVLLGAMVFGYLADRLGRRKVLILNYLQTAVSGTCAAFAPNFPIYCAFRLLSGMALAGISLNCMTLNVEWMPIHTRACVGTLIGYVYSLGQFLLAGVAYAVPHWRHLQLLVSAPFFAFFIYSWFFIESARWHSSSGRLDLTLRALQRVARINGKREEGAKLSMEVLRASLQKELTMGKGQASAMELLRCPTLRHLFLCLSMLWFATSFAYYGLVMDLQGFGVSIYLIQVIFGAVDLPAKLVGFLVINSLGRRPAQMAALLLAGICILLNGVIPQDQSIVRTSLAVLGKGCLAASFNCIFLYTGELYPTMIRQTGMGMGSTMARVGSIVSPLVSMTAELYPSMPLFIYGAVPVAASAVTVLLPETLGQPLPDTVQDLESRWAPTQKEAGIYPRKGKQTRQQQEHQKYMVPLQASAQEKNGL

[17] = molecular target: Organic anion transporter 3 (Homo sapiens, UniProt Q8TCC7); experiment: Inhibition of OAT3 (unknown origin)
Chain of Organic anion transporter 3 (Q8TCC7 whole entry): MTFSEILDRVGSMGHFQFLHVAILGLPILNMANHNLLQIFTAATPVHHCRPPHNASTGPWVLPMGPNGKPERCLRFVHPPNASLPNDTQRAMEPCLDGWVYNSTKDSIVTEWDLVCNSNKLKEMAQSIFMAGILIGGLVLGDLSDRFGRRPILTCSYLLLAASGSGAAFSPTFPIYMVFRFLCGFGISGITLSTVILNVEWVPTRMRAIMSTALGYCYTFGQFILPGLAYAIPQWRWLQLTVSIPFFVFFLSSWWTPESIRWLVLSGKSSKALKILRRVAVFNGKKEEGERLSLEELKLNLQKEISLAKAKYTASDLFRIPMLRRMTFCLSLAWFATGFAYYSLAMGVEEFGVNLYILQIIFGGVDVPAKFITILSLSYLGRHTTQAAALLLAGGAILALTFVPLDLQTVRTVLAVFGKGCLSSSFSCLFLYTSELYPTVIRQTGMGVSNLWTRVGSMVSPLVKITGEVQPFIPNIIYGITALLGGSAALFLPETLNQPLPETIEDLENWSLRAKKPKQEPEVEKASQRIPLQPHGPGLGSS

Homo sapiens [18] = organism: Homo sapiens; experiment: Inhibition of sodium channel (unknown origin) at 10 uM at 4 Hz electrophysiological method relative to control
Homo sapiens [19] = organism: Homo sapiens; experiment: Inhibition of calcium channel (unknown origin) at 10 uM by electrophysiological method relative to control
Rattus norvegicus [20] = experiment: Analgesic activity in CCI induced thermal hyperalgesia in Sprague-Dawley rat assessed as reversal of thermal hyperalgesia by measuring reduction in paw withdrawal latency at 1 mg/kg, po measured after 5.5 hrs by Hargreaves test relative to control; format: functional; set-up: scale not given: the % may be the effect or the level left
[21] = Cmax in Sprague-Dawley rat plasma with CCI induced thermal hyperalgesia at 0.1 mg/kg, po measured at 5.75 hrs post dose; format: ADME, organism-based; set-up: route oral, dose 0.1 mg/kg, time 5.75 hrs
[22] = Cmax in Sprague-Dawley rat plasma with CCI induced thermal hyperalgesia at 0.3 mg/kg, po measured at 5.75 hrs post dose; format: ADME, organism-based; set-up: route oral, dose 0.3 mg/kg, time 5.75 hrs
[23] = Cmax in Sprague-Dawley rat plasma with CCI induced thermal hyperalgesia at 1 mg/kg, po measured at 5.75 hrs post dose; format: ADME, organism-based; set-up: route oral, dose 1 mg/kg, time 5.75 hrs
Rattus norvegicus [24] = experiment: Analgesic activity in CCI induced thermal hyperalgesia Sprague-Dawley rat model assessed as efficacy at 0.3 mg/kg, po measured at 5.75 hrs post dose; format: functional
[25] = Cmax in overnight fasted Sprague-Dawley rat plasma with streptozotocin induced diabetic peripheral neuropathic mechanical allodynia at 0.1 mg/kg, po measured at 5.5 hrs post dose; format: ADME, organism-based; set-up: route oral, time 5.5 hrs, dose 0.1 mg/kg
[26] = Cmax in overnight fasted Sprague-Dawley rat plasma with streptozotocin induced diabetic peripheral neuropathic mechanical allodynia at 0.3 mg/kg, po measured at 5.5 hrs post dose; format: ADME, organism-based; set-up: route oral, time 5.5 hrs, dose 0.3 mg/kg
[27] = Cmax in overnight fasted Sprague-Dawley rat plasma with streptozotocin induced diabetic peripheral neuropathic mechanical allodynia at 3 mg/kg, po measured at 5.5 hrs post dose; format: ADME, organism-based; set-up: route oral, time 5.5 hrs, dose 3 mg/kg
[28] = Drug concentration in overnight fasted Sprague-Dawley rat spinal cord with streptozotocin induced diabetic peripheral neuropathic mechanical allodynia at 0.1 mg/kg, po measured at 5.5 hrs post dose; format: ADME, organism-based; conditions: read-out: Ct
[29] = Ratio of drug concentration in spinal cord to plasma of overnight fasted Sprague-Dawley rat model with streptozotocin induced diabetic peripheral neuropathic mechanical allodynia at 1 mg/kg, po measured at 5.5 hrs post dose; format: ADME, organism-based
Rattus norvegicus [30] = experiment: Analgesic activity in streptozotocin induced diabetic peripheral neuropathic mechanical allodynia in overnight fasted Sprague-Dawley rat model assessed as efficacy at 0.3 mg/kg, po measured at 5.5 hrs post dose; format: functional
[31] = Cmax in naive Sprague-Dawley rat plasma at 10 mg/kg, po measured at 5.25 hrs post dose; format: ADME, organism-based; set-up: route oral, dose 10 mg/kg, time 5.25 hrs
[32] = Drug concentration in naive Sprague-Dawley rat spinal cord at 30 mg/kg, po measured at 5.25 hrs post dose; format: ADME, organism-based; conditions: read-out: Ct
[33] = Ratio of drug concentration in spinal cord to plasma in Sprague-Dawley rat at 3 mg/kg, po measured at 5.25 hrs post dose; format: ADME, organism-based
[34] = Ratio of drug concentration in spinal cord to plasma in Sprague-Dawley rat at 10 mg/kg, po measured at 5.25 hrs post dose; format: ADME, organism-based
[35] = Cmax in dog at 3 mg/kg, po; format: ADME, organism-based, Canis lupus familiaris; set-up: route oral, dose 3 mg/kg; conditions: in vivo
[36] = Cmax in monkey at 3 mg/kg, po; format: ADME, organism-based, Macaca mulatta; set-up: route oral, dose 3 mg/kg; conditions: rhesus monkey, in vivo
[37] = AUC (infinity) in rat at 3 mg/kg, po; format: ADME, organism-based; set-up: route oral, time infinity, dose 3 mg/kg; conditions: in vivo
[38] = AUC (infinity) in dog at 3 mg/kg, po; format: ADME, organism-based, Canis lupus familiaris; set-up: route oral, time infinity, dose 3 mg/kg; conditions: in vivo
[39] = Apparent elimination half life in monkey at 2 mg/kg, iv; format: ADME, organism-based, Macaca mulatta; conditions: rhesus monkey, in vivo, read-out: betat1/2(app) (converted)
[40] = MRT in dog at 2 mg/kg, iv; format: ADME, organism-based, Canis lupus familiaris; conditions: in vivo
[41] = MRT in monkey at 2 mg/kg, iv; format: ADME, organism-based, Macaca mulatta; conditions: rhesus monkey, in vivo
[42] = Volume of distribution at steady state in rat at 2 mg/kg, iv; format: ADME, organism-based; conditions: in vivo, read-out: Vdss
[43] = Oral bioavailability in rat at 3 mg/kg; format: ADME, organism-based; conditions: in vivo
[44] = molecular target: Cyclin-G-associated kinase (Homo sapiens, UniProt O14976); experiment: Inhibition of GAK (unknown origin)
Chain of Cyclin-G-associated kinase (O14976 whole entry): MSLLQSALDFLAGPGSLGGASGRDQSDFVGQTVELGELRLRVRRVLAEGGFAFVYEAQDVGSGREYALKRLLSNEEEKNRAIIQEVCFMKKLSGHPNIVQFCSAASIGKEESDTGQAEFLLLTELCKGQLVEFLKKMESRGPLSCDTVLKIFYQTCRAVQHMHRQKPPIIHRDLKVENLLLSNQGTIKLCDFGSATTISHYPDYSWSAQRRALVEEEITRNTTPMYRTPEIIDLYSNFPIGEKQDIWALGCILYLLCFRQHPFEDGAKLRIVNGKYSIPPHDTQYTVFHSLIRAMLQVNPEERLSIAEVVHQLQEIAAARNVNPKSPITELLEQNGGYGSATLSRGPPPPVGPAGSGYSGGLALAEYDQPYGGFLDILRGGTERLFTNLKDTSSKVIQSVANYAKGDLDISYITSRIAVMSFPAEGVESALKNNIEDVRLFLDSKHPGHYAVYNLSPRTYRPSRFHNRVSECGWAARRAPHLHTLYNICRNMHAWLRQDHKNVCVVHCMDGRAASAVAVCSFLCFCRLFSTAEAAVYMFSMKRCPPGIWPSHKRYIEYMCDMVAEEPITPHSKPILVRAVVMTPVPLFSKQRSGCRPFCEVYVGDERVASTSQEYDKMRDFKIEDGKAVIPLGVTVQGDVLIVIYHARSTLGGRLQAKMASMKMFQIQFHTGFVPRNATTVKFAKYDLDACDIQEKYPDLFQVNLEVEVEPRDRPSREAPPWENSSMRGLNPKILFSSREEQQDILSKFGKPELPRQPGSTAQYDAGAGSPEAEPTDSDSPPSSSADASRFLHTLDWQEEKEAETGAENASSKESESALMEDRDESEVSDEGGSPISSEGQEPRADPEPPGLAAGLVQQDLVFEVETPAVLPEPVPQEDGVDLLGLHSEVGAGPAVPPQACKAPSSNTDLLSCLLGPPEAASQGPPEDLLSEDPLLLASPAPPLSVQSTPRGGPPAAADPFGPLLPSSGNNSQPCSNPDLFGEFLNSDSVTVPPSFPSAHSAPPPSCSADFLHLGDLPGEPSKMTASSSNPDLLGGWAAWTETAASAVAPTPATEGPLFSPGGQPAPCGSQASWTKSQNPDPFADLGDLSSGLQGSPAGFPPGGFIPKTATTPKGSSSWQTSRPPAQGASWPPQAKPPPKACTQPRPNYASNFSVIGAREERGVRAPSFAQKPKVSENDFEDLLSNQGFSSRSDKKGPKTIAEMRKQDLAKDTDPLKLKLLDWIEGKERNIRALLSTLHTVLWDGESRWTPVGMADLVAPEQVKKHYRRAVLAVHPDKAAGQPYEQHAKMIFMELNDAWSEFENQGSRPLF

[45] = molecular target: Serine/threonine-protein kinase LATS2 (Homo sapiens, UniProt Q9NRM7); experiment: Inhibition of LATS2 (unknown origin)
[46] = molecular target: MAP kinase-interacting serine/threonine-protein kinase 1 (Homo sapiens, UniProt Q9BUB5); experiment: Inhibition of MNK1 (unknown origin)
Chain of MAP kinase-interacting serine/threonine-protein kinase 1 (Q9BUB5 whole entry): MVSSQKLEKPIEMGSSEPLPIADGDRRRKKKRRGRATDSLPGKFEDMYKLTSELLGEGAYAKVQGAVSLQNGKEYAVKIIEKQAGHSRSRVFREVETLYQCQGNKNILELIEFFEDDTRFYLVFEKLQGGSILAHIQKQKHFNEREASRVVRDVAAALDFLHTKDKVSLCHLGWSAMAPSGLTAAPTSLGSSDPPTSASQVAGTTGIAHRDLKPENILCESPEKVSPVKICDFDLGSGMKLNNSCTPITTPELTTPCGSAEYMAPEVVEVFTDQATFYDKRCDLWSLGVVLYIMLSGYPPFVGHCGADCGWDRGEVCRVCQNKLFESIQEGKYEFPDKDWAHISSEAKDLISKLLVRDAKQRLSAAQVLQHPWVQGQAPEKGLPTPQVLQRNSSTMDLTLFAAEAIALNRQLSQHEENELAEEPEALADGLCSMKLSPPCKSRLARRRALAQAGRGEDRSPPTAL

[47] = Solubility of the compound at pH 1.2 using crystalline form of sample; format: physicochemical
[48] = Solubility of the compound at pH 6.5 using crystalline form of sample; format: physicochemical
[49] = Solubility of the compound in FeSSIF; format: physicochemical

Structure (SMILES): CC(C)C[C@](C)(N)COc1ccc(-c2ccnc(C(F)F)c2)nc1C(F)F [PILAVAPADIN]
- solubility [1]: > 50000 µg/mL
- Kp at 5.75 h [2]: 23
- Kp at 5.75 h [3]: 43
- Tmax [4]: 3 h
- Tmax [5]: 5 h
- Tmax [6]: 4 h
- Papp at 4 h [7]: 60 ×10⁻⁶ cm/s
- Papp A→B at 2 h, 3 µM [8]: 19.9 ×10⁻⁶ cm/s
- Papp B→A at 2 h, 3 µM [9]: 13.8 ×10⁻⁶ cm/s
- fraction unbound at 4 h, 1 µM [10]: 0.007
- half-life [11]: 0.5 h
- IC50 (Cytochrome P450 2B6): > 20 µM
- IC50 (Cytochrome P450 3A4 [12]): > 20 µM
- IC50 (Cytochrome P450 3A4 [13]): > 20 µM
- IC50 (Cytochrome P450 3A4 [14]): > 40 µM
- IC50 [15]: > 30 µM
- IC50 (Bile salt export pump): > 30 µM
- IC50 [16]: > 30 µM
- IC50 [17]: > 30 µM
- inhibition (Homo sapiens [18]): 61%
- inhibition (Homo sapiens [19]): 40%
- Activity (Rattus norvegicus [20]): 97%
- Cmax [21]: 5 nM
- Cmax [22]: 19 nM
- Cmax [23]: 63 nM
- Efficacy (Rattus norvegicus [24]): 68%
- Cmax [25]: 6 nM
- Cmax [26]: 25 nM
- Cmax [27]: 366 nM
- concentration at 5.5 h [28]: 75 nM
- Kp at 5.5 h [29]: 9
- Efficacy (Rattus norvegicus [30]): 20%
- Cmax [31]: 780 nM
- concentration at 5.25 h [32]: 32600 nM
- Kp at 5.25 h [33]: 19
- Kp at 5.25 h [34]: 21
- Cmax [35]: 200 ng/mL
- Cmax [36]: 20 ng/mL
- AUC(0-inf) [37]: 880 ng·h/mL
- AUC(0-inf) [38]: 1630 ng·h/mL
- half-life [39]: 5.7 h
- MRT [40]: 6.9 h
- MRT [41]: 8.5 h
- Vd [42]: 19.6 L/kg
- bioavailability [43]: 50%
- IC50 [44]: 0.8 µM
- IC50 [45]: 0.66 µM
- IC50 [46]: 0.16 µM
- solubility thermodynamic [47]: 2000 µg/mL (≈ 5190 µM)
- solubility thermodynamic [48]: 440 µg/mL (≈ 1140 µM)
- solubility [49]: 840 µg/mL (≈ 2180 µM)
